Earlier results as cited in patent US20050203105A1, “Composition and method for controlling alcohol-induced facial flushing in susceptible humans” (priority 2003, published 2005).
Where two headings read alike, the source gives them in different places. Blank lines part the entries; values can stand above or below the compound they belong to.

Experiments:
[1] = for time to peak plasma levels: oral
QT interval = settings: in vivo
H1 receptor = H1 receptor (Homo sapiens, UniProt P35367)
muscarinic receptors = tested on: muscarinic receptors; design: key: +++++ = Very high; +++ = high; ++ = moderate; + = low; ± = low to none
alcohol-induced flushing [2] = settings: for rise in skin oxygen tension after sherry: oral, 30 minutes before 30-50 ml of sherry
[3] = tested on: flushing responses to red wine, chocolate and hot water; settings: one patient with carcinoid syndrome; two weeks of oral prior treatment
[4] = for Half-life: increased in renal impairment (cimetidine: also hepatic impairment and the elderly); for Elimination, Urine, Unchanged, Oral / effect of food on absorption: oral
[5] = given with an MAOI
[6] = tested on: potassium rectifier currents
alcohol-induced flushing [7] = settings: for Facial flushing: 0.64 gm orally one hour before ethanol
[8] = dose range of 10 to 40 mg
ethanol intoxication = settings: intravenous
[9] = tested on: alcohol-induced rosacea flushing; settings: subcutaneous pretreatment; 360 ml of 6% ethanol; patients with rosacea

Chain of H1 receptor (P35367 whole entry): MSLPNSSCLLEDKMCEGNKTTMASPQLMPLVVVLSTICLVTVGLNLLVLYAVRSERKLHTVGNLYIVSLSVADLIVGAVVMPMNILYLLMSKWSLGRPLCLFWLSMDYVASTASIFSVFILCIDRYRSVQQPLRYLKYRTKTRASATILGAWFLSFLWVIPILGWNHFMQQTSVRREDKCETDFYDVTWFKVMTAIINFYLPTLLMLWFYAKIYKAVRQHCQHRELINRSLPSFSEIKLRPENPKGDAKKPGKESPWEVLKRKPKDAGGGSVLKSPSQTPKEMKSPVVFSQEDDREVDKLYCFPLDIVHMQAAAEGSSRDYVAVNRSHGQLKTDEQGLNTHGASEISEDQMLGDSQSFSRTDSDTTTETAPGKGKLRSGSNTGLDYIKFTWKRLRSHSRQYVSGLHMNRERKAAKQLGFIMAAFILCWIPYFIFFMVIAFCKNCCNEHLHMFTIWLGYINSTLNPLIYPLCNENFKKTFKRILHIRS

SMILES: CN(C)CCOC(c1ccc(Cl)cc1)c1ccccn1 (centres unmarked) [Carbinoxamine]
Antihistaminic activity (H1 receptor): + to ++ | Anticholinergic activity (muscarinic receptors): +++

SMILES: CN(C)CCC(c1ccc(Cl)cc1)c1ccccn1 (centres unmarked) [Chlorpheniramine]
sedative action of absorbed alcohol (alcohol-induced flushing [2]; in vivo): potentiates the sedative action of the alcohol absorbed | rise in skin oxygen tension after sherry (alcohol-induced flushing [2]): did not affect the rise in skin oxygen tension | flushing response to red wine, chocolate and hot water challenges [3]: did not affect the flushing response

SMILES: CN(C)CC[C@@H](c1ccc(Cl)cc1)c1ccccn1 [Dexchlorpheniramine]
interaction with an MAOI [5]: may cause severe hypotension

SMILES: CCOC(=O)N1CCC(=C2c3ccc(Cl)cc3CCc3cccnc32)CC1 [Loratadine, ethyl 4-(8-chloro-5,6-dihydro-11H-benzo[5,6]cyclohepta[1,2-b]pyridin-11-ylidene)-1-piperidinecarboxylate]
potassium rectifier currents [6]: inhibit the potassium rectifier currents

SMILES: CNC(=C[N+](=O)[O-])NCCSCc1ccc(CN(C)C)o1 [Ranitidine]
Bioavailability ([4]; IM): (90-100 IM) % | Peak Plasma Concentration ([4]; IM): (0.58 IM) mcg/ml | Time to Peak Plasma Concentration ([4]; IM): (0.25 IM) hrs | Elimination, Urine, Unchanged, IV ([4]; IV): 68-79% | Bioavailability ([4]; in vivo): 50-160% | Elimination, Metabolized ([4]; in vivo): <10% | Protein Binding ([4]; in vivo): 15% | Time to Peak Plasma Concentration ([4]; in vivo): 1 to 3 h | Volume of Distribution ([4]; in vivo): 1.2 to 1.9 L/kg | Half-life [4]: 2-3^3 hrs | Peak Plasma Concentration ([4]; no dose given, dose dependent): 0.44 to 0.55 µg/mL | Elimination, Urine, Unchanged, Oral [4]: 30-35% | effect of food on absorption [4]: not significantly impaired by the administration of food | effect on hepatic oxidative metabolism (cytochrome P450 enzymes): do not seem to interfere with hepatic oxidation

SMILES: CC(=O)Oc1ccccc1C(=O)O [aspirin, acetylsalicylic acid]
Body sway (alcohol-induced flushing [7]; both groups of subjects): reduced | alcohol induced increase in heart rate (alcohol-induced flushing [7]; flushing group): reduced | Facial flushing (alcohol-induced flushing [7]; flushing group): markedly reduced | Facial flushing (alcohol-induced flushing [7]; non-flushing Occidentals): slightly increased

SMILES: Clc1cccc(Cl)c1N=C1NCCN1 [clonidine]
flushing response to red wine, chocolate and hot water challenges [3]: blocked the flushing responses to red wine and chocolate, but not to hot water

SMILES: Clc1ccc2c(c1)CCc1cccnc1C2=C1CCNCC1 [desloratadine, descarboethoxyloratadine]
dose dependence of pharmacokinetics [8]: independent of dose

SMILES: C=CCN1CC[C@]23c4c5ccc(O)c4O[C@H]2C(=O)CC[C@@]3(O)[C@H]1C5 [naloxone]
impairment by ethanol (typing errors) (ethanol intoxication; CPAF group): reversed this effect | impairment by ethanol (typing errors) (ethanol intoxication; non-flushing group): no effect | alcohol-induced rosacea flushing (AIRF) [9]: blocked

Now from value to compound, other results behind:

half-life, distribution phase ([1]; biphasic): 20 h | protein bound ([1]; in vivo): 96.7% | time to peak plasma levels [1]: ≤ 1 h | reduction of absorption when taken with food ([1]; with food): 60%
SMILES: COc1ccc(CCN2CCC(Nc3nc4ccccc4n3Cc3ccc(F)cc3)CC2)cc1 [Astemizole]
QT prolongation, ventricular arrhythmias, torsade de pointes (QT interval): can cause QT interval prolongation/ventricular arrhythmias

Antihistaminic activity (H1 receptor): ++ | Anticholinergic activity (muscarinic receptors): ++
SMILES: CN1CCC(=C2c3ccccc3CCc3cccnc32)CC1 [Azatadine]

Antihistaminic activity (H1 receptor): +++ | Anticholinergic activity (muscarinic receptors): ++
SMILES: CN(C)CCC(c1ccc(Br)cc1)c1ccccn1 (centres unmarked) [Brompheniramine]

Peak Plasma Concentration ([4]; 300 mg dose, dose dependent): 0.7 to 3.2 µg/mL | Elimination, Urine, Unchanged, IV ([4]; IV): 75% | Peak Plasma Concentration ([4]; IV): (3.5-7.5 IV) mcg/ml | Bioavailability ([4]; in vivo): 60-70% | Elimination, Metabolized ([4]; in vivo): 30-40% | Protein Binding ([4]; in vivo): 13-25% | Time to Peak Plasma Concentration ([4]; in vivo): 0.75 to 1.5 h | Volume of Distribution ([4]; in vivo): 0.8 to 1.2 L/kg | Half-life [4]: ≈2^2 hrs | Elimination, Urine, Unchanged, Oral [4]: 48% | effect of food on absorption [4]: unaffected by food
SMILES: CN/C(=N/CCSCc1nc[nH]c1C)NC#N [Cimetidine]
removal by hemodialysis or peritoneal dialysis ([4]; in vivo): not significantly removed by hemodialysis or peritoneal dialysis | rise in skin oxygen tension after sherry (alcohol-induced flushing [2]): did noticeably reduce the increase in oxygen concentration | effect on hepatic oxidative metabolism (cytochrome P450 enzymes): inhibits hepatic oxidative metabolism by most cytochrome P450 enzymes | flushing response to red wine, chocolate and hot water challenges [3]: blocked the flushing responses to red wine and chocolate, but not to hot water

Peak Plasma Concentration ([4]; 40 mg dose, dose dependent): 0.076 to 0.1 µg/mL | Elimination, Urine, Unchanged, IV ([4]; IV): 65-70% | Bioavailability ([4]; in vivo): 40-45% | Elimination, Metabolized ([4]; in vivo): 30-35% | Protein Binding ([4]; in vivo): 15-20% | Time to Peak Plasma Concentration ([4]; in vivo): 1 to 3 h | Volume of Distribution ([4]; in vivo): 1.1 to 1.4 L/kg | Half-life [4]: 2.5-3.5^3 hrs | Elimination, Urine, Unchanged, Oral [4]: 25-30%
SMILES: NC(N)=Nc1nc(CSCCC(N)=NS(N)(=O)=O)cs1 [Famotidine]
effect on hepatic oxidative metabolism (cytochrome P450 enzymes): do not seem to interfere with hepatic oxidation

Antihistaminic activity (H1 receptor): ++ to +++ | Anticholinergic activity (muscarinic receptors): +++
SMILES: CN1CCC(CN2c3ccccc3Sc3ccccc32)C1 (centres unmarked) [Methdilazine]

Peak Plasma Concentration ([4]; 150 mg dose, dose dependent): 0.7 to 1.8 µg/mL | Peak Plasma Concentration ([4]; 300 mg dose, dose dependent): 1.4 to 3.6 µg/mL | Plasma concentrations 12 hours after administration ([4]; 12 hours after administration): less than 10 mcg/L | Bioavailability ([4]; in vivo): >90% | Elimination, Metabolized ([4]; in vivo): <18% | Protein Binding ([4]; in vivo): ≈35% | Time to Peak Plasma Concentration ([4]; in vivo): 0.5 to 3 h | Volume of Distribution ([4]; in vivo): 0.8 to 1.5 L/kg | Half-life [4]: 1-2^3 hrs | Elimination, Urine, Unchanged, Oral [4]: 60%
SMILES: CNC(=C[N+](=O)[O-])NCCSCc1csc(CN(C)C)n1 [Nizatidine]

Antihistaminic activity (H1 receptor): ++ | Anticholinergic activity (muscarinic receptors): ++
SMILES: CN1CCC2=C(C1)C(c1ccccc1)c1ccccc12 (centres unmarked) [Phenindamine]

dose eliminated via the urine ([1]; in vivo): 40% | elimination half-life ([1]; in vivo): 20 h | fecal excretion of the dose ([1]; in vivo): 60% | time to peak plasma levels [1]: 2 h
SMILES: CC(C)(C)c1ccc(C(O)CCCN2CCC(C(O)(c3ccccc3)c3ccccc3)CC2)cc1 (centres unmarked) [Terfenadine]
single overdose associated with serious cardiovascular adverse events (QT interval): ≥ 360 mg

Antihistaminic activity (H1 receptor): ++ to +++ | Anticholinergic activity (muscarinic receptors): +++
SMILES: CC(CN(C)C)CN1c2ccccc2Sc2ccccc21 (centres unmarked) [Trimeprazine]

Antihistaminic activity (H1 receptor): + to ++ | Anticholinergic activity (muscarinic receptors): ±
SMILES: CN(C)CCN(Cc1ccccc1)c1ccccn1 [Tripelennamine]

Antihistaminic activity (H1 receptor): ++ to +++ | Anticholinergic activity (muscarinic receptors): ++
SMILES: Cc1ccc(/C(=C\CN2CCCC2)c2ccccn2)cc1 [Triprolidine]
